Source: patent publication EP0640606B1, “Thienopyrimidine derivatives, their production and use” (TAKEDA CHEMICAL INDUSTRIES, LTD., priority 1993, dated 1995)

Experiments:
Endothelin-B Receptor [1] = molecular target: T1, Endothelin-B Receptor (Homo sapiens, UniProt P24530); experiment: Endothelin Assay Test, [125I]endothelin-1 binding to insect cell (Sf9) membrane fraction expressing human ETB receptor; conditions: human ETB receptor expressed, 25°C for 60 minutes, PMB = 50%, read-out: IC 50 Endothelin-B Receptor (human)
T1 construct: expressed in transfected cells; host or cells: Sf9 insect cells (membrane fraction)
T1 sequence (P24530 27-442): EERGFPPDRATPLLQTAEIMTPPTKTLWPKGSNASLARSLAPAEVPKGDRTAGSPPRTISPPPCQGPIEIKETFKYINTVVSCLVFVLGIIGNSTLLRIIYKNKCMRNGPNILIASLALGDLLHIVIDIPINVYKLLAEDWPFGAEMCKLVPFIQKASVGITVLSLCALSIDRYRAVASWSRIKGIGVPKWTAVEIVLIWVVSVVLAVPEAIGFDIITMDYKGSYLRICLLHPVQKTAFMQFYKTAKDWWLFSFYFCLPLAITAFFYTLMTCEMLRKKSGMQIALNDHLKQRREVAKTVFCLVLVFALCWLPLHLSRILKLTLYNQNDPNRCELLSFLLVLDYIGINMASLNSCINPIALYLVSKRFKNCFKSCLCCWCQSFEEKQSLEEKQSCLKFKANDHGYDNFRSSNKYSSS
Method: (§1) Endothelin (ET) receptors were prepared as follows. An insect cell (Sf9) membrane fraction wherein human endothelin-A (ETA) was expressed and that wherein endothelin-B (ETB) was expressed were diluted with an assay buffer [comprising 20 mM of Tris-HCl, 2 mM of EGTA (ethylene glycol bis(2-aminoethyl ether)tetraacetic acid), 5 mM of magnesium acetate, 0.1% of BSA (bovine serum albumin), 0.03% of NaN3, 0.5 mM of PMSF (phenylmethylsulfonyl fluoride), 20 micrograms/ml of leupeptin, 4 micrograms/ml of E-64 (manufactured by the Peptide Institute, Japan) and 1 microgram/ml of pepstatin; pH 7.2] to make 1.4 micrograms/ml and 0.7 microgram/ml for the insect cell (Sf 9) membrane fraction wherein a human ETA receptor was expressed and for that wherein a human ETB receptor was expressed, respectively. Each 100 microliters of them were taken out and 2 microliters of 5nM [^125I]endothelin-1 was added thereto. A dimethyl sulfoxide solution (3 microliters) of the sample was added thereto and the mixture was incubated at 25°C for 60 minutes. Further, in order to measure the maximum binding (B0) and the nonspecific binding (NSB), a lot to which […] or […] of 10^-5M of endothelin-1 in dimethyl sulfoxide was added was incubated as well. An assay buffer suspended with 0.05% CHAPS (3-[(3-cholamidopropyl)di-methylammonio]-1-propanesulfonate, 1.5 ml) was added and the mixture was filtered through a GF/F glass fiber filter (trade name of Whatman, England) followed by washing with 1.5 ml of the same buffer.
(§2) The radioactivity of the filter was counted by a γ -counter and determined PMB by the same way described in Test Example 1. The value wherein PMB = 50% was calculated and expressed as an IC50.

Endothelin-A Receptor [2] = molecular target: T2, Endothelin-A Receptor (Homo sapiens, UniProt P25101); experiment: Endothelin Assay Test, [125I]endothelin-1 binding to insect cell (Sf9) membrane fraction expressing human ETA receptor; conditions: human ETA receptor expressed, 25°C for 60 minutes, PMB = 50%, read-out: IC 50 Endothelin-A Receptor (human)
T2 construct: expressed in transfected cells; host or cells: Sf9 insect cells (membrane fraction)
T2 sequence (P25101 21-427): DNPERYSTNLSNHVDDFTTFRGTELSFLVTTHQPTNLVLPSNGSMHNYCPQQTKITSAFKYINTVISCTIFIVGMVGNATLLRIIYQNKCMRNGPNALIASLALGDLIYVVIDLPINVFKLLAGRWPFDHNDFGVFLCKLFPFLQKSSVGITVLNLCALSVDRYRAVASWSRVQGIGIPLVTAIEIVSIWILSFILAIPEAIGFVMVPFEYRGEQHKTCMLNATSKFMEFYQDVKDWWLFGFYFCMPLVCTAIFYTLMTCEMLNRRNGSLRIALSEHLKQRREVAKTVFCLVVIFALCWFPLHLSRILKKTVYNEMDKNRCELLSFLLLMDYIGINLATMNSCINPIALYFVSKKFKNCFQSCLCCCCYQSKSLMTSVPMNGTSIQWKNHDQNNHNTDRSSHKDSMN
Method: as §1, §2

Endothelin-A Receptor [3] = molecular target: T3, Endothelin-A Receptor (Sus scrofa, UniProt Q29010); experiment: Endothelin Receptor Assay, [125I]endothelin-1 binding to pig ventricular muscle membrane fraction; conditions: 25°C for 60 minutes, concentration wherein PMB was 50%, read-out: IC50 Endothelin-A Receptor (pigs)
T3 construct: A pig ventricular muscle membrane fraction for an endothelin-A receptor assay; from tissue; host or cells: pig ventricular muscle membrane fraction
T3 sequence (Q29010 21-427): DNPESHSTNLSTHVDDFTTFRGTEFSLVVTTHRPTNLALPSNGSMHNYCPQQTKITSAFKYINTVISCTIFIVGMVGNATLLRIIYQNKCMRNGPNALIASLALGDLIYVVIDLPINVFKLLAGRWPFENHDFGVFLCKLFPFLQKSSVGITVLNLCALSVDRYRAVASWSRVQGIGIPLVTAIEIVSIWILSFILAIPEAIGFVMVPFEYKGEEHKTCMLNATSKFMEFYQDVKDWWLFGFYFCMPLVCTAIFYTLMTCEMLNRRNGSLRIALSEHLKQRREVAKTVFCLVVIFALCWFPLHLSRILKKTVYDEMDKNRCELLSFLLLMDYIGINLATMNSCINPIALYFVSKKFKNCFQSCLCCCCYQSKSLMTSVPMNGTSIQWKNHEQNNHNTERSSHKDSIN
Method: (§3) A pig ventricular muscle membrane fraction for an endothelin-A receptor assay and a bovine cerebral membrane fraction for an endothelin-B receptor assay were diluted with an assay buffer [comprising 20 mM of Tris-HCl, 2 mM of EGTA (ethylene glycol bis(2-aminoethyl ether)tetraacetic acid), 5 mM of magnesium acetate, 0.1% of BSA (bovine serum albumin), 0.03% of NaN3, 0.5 mM of PMSF (phenylmethylsulfonyl fluoride), 20 micrograms/ml of leupeptin, 4 micrograms/ml of E-64 (manufactured by the Peptide Institute, Japan) and 1 microgram/ml of pepstatin; pH 7.2] to 12 µg/ml and 180 µg/ml, respectively.
(§4) To each 100 microliter of them was added 5 nM [^125I] endothelin-1 (2 microliters). A solution (3 microliters) of the sample was added and the mixture was incubated at 25°C for 60 minutes. In order to measure the maximum binding (B0) and the nonspecific bonding (NSB), a lot to which dimethyl sulfoxide (3 microliters) or a solution (3 microliters) of 10^-5M of endothelin in dimethyl sulfoxide was added was incubated as well. […] The radioactivity of the filter was counted by a γ -counter and a calculation was conducted in accordance with the following formula (1) whereby a percent maximum binding (hereinafter, referred to as PMB) was determined. […]

Endothelin-B Receptor [4] = molecular target: T4, Endothelin-B Receptor (Bos taurus, UniProt P28088); experiment: Endothelin Receptor Assay, [125I]endothelin-1 binding to bovine cerebral membrane fraction; conditions: 25°C for 60 minutes, concentration wherein PMB was 50%
T4 construct: a bovine cerebral membrane fraction for an endothelin-B receptor assay; from tissue; host or cells: bovine cerebral membrane fraction
T4 sequence (P28088 27-441): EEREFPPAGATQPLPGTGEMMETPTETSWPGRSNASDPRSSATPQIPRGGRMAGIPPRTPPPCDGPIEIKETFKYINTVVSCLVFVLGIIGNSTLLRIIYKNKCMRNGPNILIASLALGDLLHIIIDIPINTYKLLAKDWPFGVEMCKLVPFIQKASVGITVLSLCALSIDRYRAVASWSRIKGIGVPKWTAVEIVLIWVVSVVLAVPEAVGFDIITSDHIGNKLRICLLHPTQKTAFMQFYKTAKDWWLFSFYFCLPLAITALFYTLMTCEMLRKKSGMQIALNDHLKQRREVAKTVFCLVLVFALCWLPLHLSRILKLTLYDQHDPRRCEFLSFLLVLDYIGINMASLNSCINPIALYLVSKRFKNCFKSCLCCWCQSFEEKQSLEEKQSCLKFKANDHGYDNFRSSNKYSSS
Method: as §3, §4

IC50 (Endothelin-B Receptor [1]) [µM]	IC50 (Endothelin-A Receptor [2]) [nM]	IC50 (Endothelin-A Receptor [3]) [µM]	IC50 (Endothelin-B Receptor [4]) [µM]	SMILES
14	1800	–	–	COc1ccc(-c2sc3c(c2C)c(=O)n(CC(=O)O)c(=O)n3Cc2ccccc2C)cc1 [Compound 111]
12	1200	–	–	COc1ccccc1Cn1c(=O)n(CC(=O)O)c(=O)c2c(C)c(-c3ccc(OCCO)cc3)sc21 [Compound 130]
15	240	–	–	COc1ccccc1Cn1c(=O)n(CC(=O)O)c(=O)c2c(C)c(-c3ccc(OCSC)cc3)sc21 [Compound 140, 2,4(1H,3H)-dioxo-5-methyl-6-(4-methylthiomethoxyphenyl)-1-(2-methoxybenzyl)thieno[2,3-d]pyrimidine-3-acetic acid]
2.4	300	–	–	COCOc1ccc(-c2sc3c(c2C)c(=O)n(CC(=O)O)c(=O)n3Cc2ccccc2OC)cc1 [Compound 131, 2,4(1H,3H)-dioxo-5-methyl-6-(4-methoxymethoxyphenyl)-1-(2-methoxybenzyl)thieno[2,3-d]pyrimidine-3-acetic acid]
2.5	2100	–	–	CSc1ccccc1Cn1c(=O)n(CC(=O)O)c(=O)c2c(C)c(-c3ccc(-n4cccc4)cc3)sc21 [Compound 173, 2,4(1H,3H)-dioxo-1-(2-methylthiobenzyl)-6-[4-(1-pyrrolyl)phenyl]-5-methylthieno[2,3-d]pyrimidine-3-acetic acid]
–	–	1.3	7.5	COc1ccccc1Cn1c(=O)n(CC(=O)O)c(=O)c2c(C)c(-c3ccccc3)sc21 [Compound 102]
33	2500	–	–	COc1ccccc1Cn1c(=O)n(CC(=O)O)c(=O)c2c(C)c(-c3ccc(OCC(N)=O)cc3)sc21 [Compound 143]
0.66	66	–	–	CSCOc1ccc(-c2sc3c(c2C)c(=O)n(CC(=O)O)c(=O)n3Cc2ccccc2SC)cc1 [Compound 145, 2,4(1H,3H)-dioxo-5-methyl-6-(4-methylthiomethoxyphenyl)-1-(2-methylthiobenzyl)thieno[2,3-d]pyrimidine-3-acetic acid]
2.6	250	–	–	CCCOc1ccc(-c2sc3c(c2C)c(=O)n(CC(=O)O)c(=O)n3Cc2ccccc2SC)cc1 [Compound 146, 2,4(1H,3H)-dioxo-5-methyl-1-(2-methylthiobenzyl)-6-(4-propoxyphenyl)thieno[2,3-d]pyrimidine-3-acetic acid]
12	1900	–	–	COc1ccc(-c2sc3c(c2C)c(=O)n(CC(=O)O)c(=O)n3Cc2ccccc2OC)cc1 [Compound 105]
0.92	85	–	–	COCOc1ccc(-c2sc3c(c2C)c(=O)n(CC(=O)O)c(=O)n3Cc2ccccc2SC)cc1 [Compound 144, 2,4(1H,3H)-dioxo-5-methyl-6-(4-methoxymethoxyphenyl)-1-(2-methylthiobenzyl)thieno[2,3-d]pyrimidine-3-acetic acid]
–	–	12	39	COc1cccc(Cn2c(=O)n(CC(=O)O)c(=O)c3cc(-c4ccccc4)sc32)c1 [Compound 99]
6.8	710	–	–	COc1ccc(-c2sc3c(c2C)c(=O)n(CC(=O)O)c(=O)n3Cc2ccccc2SC)cc1 [Compound 115, 2,4(1H,3H)-dioxo-5-methyl-6-(4-methoxyphenyl)-1-(2-methylthiobenzyl)thieno[2,3-d]pyrimidine-3-acetic acid]
16	2600	–	–	CSc1ccccc1Cn1c(=O)n(CC(=O)O)c(=O)c2c(C)c(-c3ccc4c(c3)OCO4)sc21 [Compound 156]
26	2900	–	–	COc1ccc(-c2sc3c(c2C)c(=O)n(CC(=O)O)c(=O)n3Cc2cc(OC)ccc2OC)cc1 [Compound 125]
7.1	400	–	–	CSc1ccccc1Cn1c(=O)n(CC(=O)O)c(=O)c2c(C)c(-c3ccc(OCC(C)=O)cc3)sc21 [Compound 148, 2,4(1H,3H)-dioxo-5-methyl-1-(2-methylthiobenzyl)-6-[4-(2-oxopropoxy)phenyl]thieno[2,3-d]pyrimidine-3-acetic acid]
